Reference: the NIST ThermoML archive (doi:10.1016/j.fluid.2008.08.015)
Numbers after ± are expanded uncertainties.

Settings: 295 K; for surface tension liquid-gas: Maximal bubble pressure; for mass density / viscosity: 101.33 kPa, Liquid; for mass density: Buoyancy - hydrostatic balance with magnetic suspension - one sinker; for viscosity: Concentric cylinders viscometry

surface tension liquid-gas [mN/m] | mass density [kg/m3] | viscosity [mPa·s] | SMILES
47.95 ± 2.4 | 1120.7 ± 22 | 21.26 ± 3.1 | OCCO [1,2-ethanediol]
62.87 ± 1.4 | 1267.4 ± 25 | 1499.5 ± 190 | OCC(O)CO [glycerol]
